From BindingDB's records for doi:10.7270/Q2GH9GBT (Nmmlsc, 2008)
Where a name gives a salt, the structure may show the parent alone.

What follows are compounds tested against T1, Bcl-2-like protein 10 [11-204] (Homo sapiens, UniProt Q9HD36) (assay: regulators of Bim-Bcl-B binding, dose response, biochemical, multiplexed, bead-based flow cytometry, human (AID 1327)). Conditions: not given.
T1 construct: 11-204
T1 sequence (Q9HD36 whole entry): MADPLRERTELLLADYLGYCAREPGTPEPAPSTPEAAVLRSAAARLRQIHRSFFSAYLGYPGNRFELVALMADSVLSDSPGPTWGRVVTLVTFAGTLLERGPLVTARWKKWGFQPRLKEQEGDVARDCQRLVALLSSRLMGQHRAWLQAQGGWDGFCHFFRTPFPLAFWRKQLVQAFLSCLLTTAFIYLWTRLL
Work on `Cc1nc2ncccn2c1-c1csc(Nc2ccc(O)cc2)n1` yielded an EC50 of 0.12 µM.
With `COc1ccc(CC(=O)Nc2ccc(-c3nc4cc(C)ccc4o3)c(O)c2)cc1OC` [2-(3,4-dimethoxyphenyl)-N-[(4Z)-3-keto-4-(5-methyl-3H-1,3-benzoxazol-2-ylidene)cyclohexa-1,5-dien-1-yl]acetamide] the EC50 was 14.8 µM.
With `Nc1ccc(N2CCN(CCCCN3C(=O)C4CCCN4C3=O)CC2)cc1` (stereo unspecified) [2-[4-[4-(4-aminophenyl)-1-piperazinyl]butyl]-5,6,7,7a-tetrahydropyrrolo[1,2-c]imidazole-1,3-dione;hydrate;hydrochloride] the EC50 was 52.5 µM.
Compound `COc1ccccc1Cn1nnc2c(=O)[nH]c(C3CCN(C(=O)c4ccc(C)cc4)CC3)nc21` [3-[(2-methoxyphenyl)methyl]-5-[1-(4-methylphenyl)carbonylpiperidin-4-yl]-2H-[1,2,3]triazolo[4,5-d]pyrimidin-7-one] has an EC50 of 12.2 µM.
With `Cc1cc(N)ccc1N1CCCC1` [3-methyl-4-(1-pyrrolidinyl)aniline;hydrochloride] the EC50 was 2.13 µM.
`COc1ccccc1Nc1nc(-c2c(C)nc3ncccn23)cs1` [(2-methoxyphenyl)-[4-(2-methylimidazo[1,2-a]pyrimidin-3-yl)thiazol-2-yl]amine;hydrobromide] was tested, and the EC50 was 0.82 µM.
With `CN(C)[C@@H]1C(=O)C(C(=O)NCN2CCCC2)C(=O)[C@@]2(O)C(=O)C3C(=O)c4c(O)cccc4[C@@](C)(O)C3CC12` (stereo partly drawn) [(2Z,4S,6S,12aS)-4-(dimethylamino)-6,10,11,12a-tetrahydroxy-2-[hydroxy-(1-pyrrolidinylmethylamino)methylidene]-6-methyl-4,4a,5,5a-tetrahydrotetracene-1,3,12-trione] the EC50 was 14.3 µM.
For `COc1cc(CN=Nc2nn3cnnc3c3ccccc23)ccc1O` [(4E)-2-methoxy-4-[[2-([1,2,4]triazolo[3,4-a]phthalazin-6-yl)hydrazinyl]methylidene]cyclohexa-2,5-dien-1-one], the EC50 was 1.07 µM.
Compound `O=c1c2c(n3nnnc3n1Cc1ccccc1)-c1ccccc1CC21CCCC1` [MLS000030575] has an EC50 of 5.52 µM.
In the case of `Clc1nc(NCc2cccnc2)nc(N2CCOCC2)n1` [MLS000121154], the EC50 is reported as 8.51 µM.
`Clc1ccc2c(N=NCc3ccccc3Br)ccnc2c1` [MLS000336087] gave an EC50 of 9.57 µM.
Work on `O=S1(=O)N=C(N(CCO)N=Cc2ccncc2)c2ccccc21` [MLS000682942] yielded an EC50 of 11.8 µM.
For `OCCN1CCN(CCCc2c3c(cc4c2CCC4)CCC3)CC1` [MLS000698424], the EC50 was 15.5 µM.
With `COc1cccc2c(SCC(=O)NN=Cc3ccc(O)cc3O)cc(C)nc12` [N'-[(E)-(2-hydroxy-4-oxo-1-cyclohexa-2,5-dienylidene)methyl]-2-[(8-methoxy-2-methyl-4-quinolinyl)thio]acetohydrazide] the EC50 was 9.13 µM.
In the case of `COc1cc(C=NNC(=O)CN(Cc2ccco2)S(=O)(=O)c2ccccc2)ccc1O` [N-(2-furanylmethyl)-N-[2-[[(E)-(3-methoxy-4-oxo-1-cyclohexa-2,5-dienylidene)methyl]hydrazo]-2-oxoethyl]benzenesulfonamide], the EC50 is reported as 7.81 µM.
`COc1cccc(CN=Nc2nn3cnnc3c3ccccc23)c1` [N-[1-(3-Methoxy-phenyl)-meth-(E)-ylidene]-N'-[1,2,4]triazolo[3,4-a]phthalazin-6-yl-hydrazine] showed an EC50 of 0.98 µM.
Work on `Clc1ccc2c(N=NCc3ccc(Br)cc3)ccnc2c1` [N-[(4-bromophenyl)methylideneamino]-7-chloranyl-quinolin-4-amine] yielded an EC50 of 20.9 µM.
`Cc1cccc(OCC(=O)NCC(=O)NN=Cc2cc(Br)ccc2OCc2ccccc2)c1` [N-[(5-bromanyl-2-phenylmethoxy-phenyl)methylideneamino]-2-[2-(3-methylphenoxy)ethanoylamino]ethanamide] was tested, and the EC50 was 5.53 µM.

Same assay, conditions: inactive by the depositor's call
`Cc1ccc(C)n1-c1cccc(C(=O)O)c1` gave an EC50 of 49.5 µM.
Work on `O=C(Nc1ccc2nc(-c3ccco3)c(-c3ccco3)nc2c1)N1CCCCCC1` yielded an EC50 of 33.3 µM.
Work on `CN1CCN(C2=C(Cl)C(=O)C(c3cnc(N4CCCCC4)s3)=C(Cl)C2=O)CC1` yielded an EC50 of 3.42 µM.
`CCOC(=O)c1ccc(Nc2nc(C(=O)OCC)nc3ccccc23)cc1` gave an EC50 of 2.18 µM.
For `CCOCCCn1c(N)c(C(=O)Nc2sc3c(c2C(=O)OC)CCCC3)c2nc3ccccc3nc21`, the EC50 was 1.28 µM.
`O=S1(=O)N=C(N(CCO)N=C/C=C/c2ccccc2)c2ccccc21` gave an EC50 of 11.7 µM.
`CCOC(=O)c1c2c3c(cccc3[nH]c1=O)C(=O)c1ccccc1-2` was tested, and the EC50 was 3.53 µM.
Work on `CCN(CC)c1ccc(-c2nn3c(-c4ccccc4OC)nnc3s2)cc1` yielded an EC50 of 21.7 µM.
Work on `O=C(NCc1ccccc1)c1ccc2nc(-c3ccco3)c(-c3ccco3)nc2c1` [2,3-bis(furan-2-yl)-N-(phenylmethyl)quinoxaline-6-carboxamide] yielded an EC50 of 20.6 µM.
For `O=C(Nc1ccccc1)c1ccc2nc(-c3ccco3)c(-c3ccco3)nc2c1` [2,3-di-2-furyl-N-phenyl-6-quinoxalinecarboxamide], the EC50 was 33.8 µM.
Work on `O=C(COc1ccccc1)N1CCN(c2ncnc3c2cnn3-c2ccccc2)CC1` [2-Phenoxy-1-[4-(1-phenyl-1H-pyrazolo[3,4-d]pyrimidin-4-yl)-piperazin-1-yl]-ethanone] yielded an EC50 of 19.2 µM.
`Cc1cccc(C=NN(CCO)C2=NS(=O)(=O)c3ccccc32)c1` [2-[(1,1-dioxo-1,2-benzothiazol-3-yl)-[(3-methylphenyl)methylideneamino]amino]ethanol] was tested, and the EC50 was 38.7 µM.
In the case of `Cc1cc(OCc2cn3cccnc3n2)ccc1Cl` [2-[(4-chloranyl-3-methyl-phenoxy)methyl]imidazo[1,2-a]pyrimidine], the EC50 is reported as 17.3 µM.
`O=S1(=O)N=C(N(CCO)N=Cc2ccccc2)c2ccccc21` [2-[(benzylideneamino)-(1,1-dioxo-1,2-benzothiazol-3-yl)amino]ethanol] was tested, and the EC50 was 12.8 µM.
`O=C(CSc1ccc2nnc(-c3ccccn3)n2n1)Nc1nccs1` [2-[[3-(2-pyridinyl)-[1,2,4]triazolo[4,3-b]pyridazin-6-yl]thio]-N-(2-thiazolyl)acetamide] gave an EC50 of 5.54 µM.
`O=C(NCCCN1CCN(CCCNC(=O)c2cc([N+](=O)[O-])ccc2Cl)CC1)c1cc([N+](=O)[O-])ccc1Cl` [2-chloranyl-N-[3-[4-[3-[(2-chloranyl-5-nitro-phenyl)carbonylamino]propyl]piperazin-1-yl]propyl]-5-nitro-benzamide] gave an EC50 of 43.4 µM.
Work on `Cc1nc2ncccn2c1-c1csc(Nc2ccccc2)n1` [4-(2-methyl-3-imidazo[1,2-a]pyrimidinyl)-N-phenyl-2-thiazolamine] yielded an EC50 of 1.38 µM.
In the case of `COc1ccccc1-n1c(-c2ccc(Cl)cc2)c[nH]c1=S` [4-(4-chlorophenyl)-3-(2-methoxyphenyl)-1H-imidazole-2-thione], the EC50 is reported as 11.4 µM.
`Cc1cc(C)nc(SCc2cc(=O)c(OC(=O)c3ccc(Cl)c([N+](=O)[O-])c3)co2)n1` [4-chloro-3-nitrobenzoic acid [6-[[(4,6-dimethyl-2-pyrimidinyl)thio]methyl]-4-oxo-3-pyranyl] ester] showed an EC50 of 1.51 µM.
`COc1ccc(C2=Nn3c(nnc3-c3ccco3)SC2)cc1OC` [6-(3,4-Dimethoxy-phenyl)-3-furan-2-yl-7H-[1,2,4]triazolo[3,4-b][1,3,4]thiadiazine] was tested, and the EC50 was 1.15 µM.
In the case of `COc1ccc(C2=Nn3c(nnc3-c3ccccn3)SC2)cc1OC` [6-(3,4-dimethoxyphenyl)-3-(2-pyridinyl)-7H-[1,2,4]triazolo[3,4-b][1,3,4]thiadiazine], the EC50 is reported as 6.18 µM.
Work on `CN(N=C/C=C/c1ccccc1)C1=NS(=O)(=O)c2ccccc21` [(1E,2E)-3-phenylacrylaldehyde (1,1-dioxido-1,2-benzisothiazol-3-yl)(methyl)hydrazone] yielded an EC50 of 1.94 µM.
`Cc1cc(-c2nnc3n2N=C(c2ccc(-c4ccccc4)cc2)CS3)[nH]n1` [MLS000082991] gave an EC50 of 36.4 µM.
Work on `O=C1NC(=O)C2(Cc3c(nc4ccccn4c3=O)N3CCCCCC32)C(=O)N1Cc1ccccc1` (stereo unspecified) [MLS000083668] yielded an EC50 of 18.2 µM.
For `Cc1cc2n(c1)CCn1c(C)ccc1-2` [MLS000104384], the EC50 was 11.8 µM.
`O=C(Nc1ccncc1)c1cc2ccccc2o1` [MLS000109378] gave an EC50 of 62.1 µM.
With `CCOC(=O)C1CCN(C(=O)Nc2ccc3nc(-c4ccco4)c(-c4ccco4)nc3c2)CC1` [MLS000113285] the EC50 was 46.4 µM.
`Cc1cc(C)cc(NS(=O)(=O)c2ccc3c(c2)c(=O)n(C)c(=O)n3C)c1` [MLS000521783] gave an EC50 of 17.4 µM.
`COCCCn1c(N)c(C(=O)Nc2sc3c(c2C(=O)OC)CCCC3)c2nc3ccccc3nc21` [MLS000595323] gave an EC50 of 1.39 µM.
Compound `COc1ccc(C)cc1-n1c(=O)c2ccccc2c2ccccc2c1=O` [MLS000682999] has an EC50 of 15.6 µM.
With `Cc1ccnc(SCc2cc(=O)c(OC(=O)c3ccc(Cl)c([N+](=O)[O-])c3)co2)n1` [MLS000696790] the EC50 was 6.62 µM.
Compound `CCOC(=O)c1c(O)nc2ccc(Cl)c3c2c1-c1ccccc1C3=O` [MLS000704595] has an EC50 of 1.32 µM.
Work on `Cc1ccc(OCc2cn3cccnc3n2)cc1` [MLS000723172] yielded an EC50 of 30.6 µM.
`COc1ccccc1-n1c(-c2ccccc2)c[nH]c1=S` [MLS001007615] gave an EC50 of 32.1 µM.
`c1ccc(Nc2cccc(Nc3ccccc3)n2)cc1` [N,N'-diphenyl-2,6-pyridinediamine] showed an EC50 of 7.82 µM.
For `CC(=O)c1ccc(NC(=O)c2ccc3nc(-c4ccco4)c(-c4ccco4)nc3c2)cc1` [N-(4-acetylphenyl)-2,3-di-2-furyl-6-quinoxalinecarboxamide], the EC50 was 33.7 µM.
`COc1ccc(CCNC(=O)c2ccc3nc(-c4ccco4)c(-c4ccco4)nc3c2)cc1OC` [N-[2-(3,4-dimethoxyphenyl)ethyl]-2,3-di-2-furylquinoxaline-6-carboxamide] was tested, and the EC50 was 52.4 µM.
With `Cc1ccc(C=NN(C)C2=NS(=O)(=O)c3ccccc32)o1` [N-methyl-N-[(5-methyl-2-furanyl)methylideneamino]-1,1-dioxo-1,2-benzothiazol-3-amine] the EC50 was 7.38 µM.
`CSc1nnc2c3cc(C)ccc3n(Cc3ccccc3)c2n1` [SMR000046397] showed an EC50 of 30.7 µM.
`c1ccc(-c2nc(N3CCCCCC3)c3ccccc3n2)nc1` [SMR000046752] gave an EC50 of 16.7 µM.
Compound `O=C(Nc1ccc2nc(-c3ccco3)c(-c3ccco3)nc2c1)NC1CC1` [SMR000118524] has an EC50 of 45.1 µM.
For `C#CCn1cc(C=C2C(=O)c3ccccc3C2=O)c2ccccc21` [SMR000196125], the EC50 was 17.8 µM.
Work on `CN(N=Cc1cccnc1)C1=NS(=O)(=O)c2ccccc21` [SMR000207578] yielded an EC50 of 20 µM.
